{"source": "paper PMC3438169", "about": "(PLoS ONE, 2012)", "key": {"[1]": {"system": "512 human cancer cell lines", "experiment": "Compound correlation analysis across the cell line panel", "format": "cell-based", "details": "Pearson correlation across 512 cell lines", "description": "All cell lines were maintained in humidified incubators at 37°C and 5% CO2 in DMEM or RPMI1640 supplemented with 10% FBS. Cells were seeded into 1536-well plates at a density of 250 cells per well, allowed to adhere for 12–24 hours, then treated for 3 days with pharmacological agents in 8-point dose response (semi-log from 8 µM to 2.5 nM), and cell viability was assessed using CellTiter Glo (Promega). […] Compound correlation analysis was performed by calculating a Pearson correlation for each compound pair (using either IC50 or Amax values) across the 512 cell lines. We required data values for a minimum of 50 cell lines in common to avoid spuriously high correlations."}, "[2]": {"system": "angiogenesis", "details": "p27-dependent mechanism; ref [6], [7], [8], [9]; cited from earlier work", "text": "(§1) Natural products constitute a major resource for the identification of bioactive molecules. Indeed, most antibacterials in current use are natural products or semisynthetic derivatives thereof. The argyrins are natural peptides produced by myxobacteria and actinomycetes that have an intriguing antibacterial spectrum of activity, [2], [3]. This includes the intrinsically drug resistant organism Pseudomonas aeruginosa, but not other Gram negatives tested, such as Escherichia coli or Salmonella typhimurium, unless the cells are compromised in their outer membrane permeability barrier, p ..."}, "[3]": {"system": "apoptosis", "details": "ref [6], [7], [8], [9]; cited from earlier work", "text": "as §1"}, "[4]": {"system": "proteasome", "details": "ref [6], [7], [8], [9]; cited from earlier work", "text": "as §1"}, "[5]": {"system": "HCT116", "experiment": "Cell viability (CellTiter-Glo), HCT116 with siRNA or mEF-G1 variants", "format": "cell-based, human", "details": "7 days", "description": "(§2) HCT116 (ATCC, CCL-247) and RKO (ATCC, CRL-2577) cell lines were maintained in a humidified incubator at 37°C and 5% CO2 in RPMI1640 supplemented with 10% FBS. Cell viability was determined using the CellTiter-Glo luminescent cell viability assay (Promega). […] Subsequently, 40 µl of CellTiter-Glo reagent was added to each well and luminescence recorded on an Envision plate reader (Perkin Elmer). Each treatment condition was tested in triplicate and compared to an equivalent volume of DMSO as control.\n(§3) Non-targeting (NT) or GFM1 siRNA pools were obtained from Dharmacon (ON-TARGETplus SMART pool D-001810 and L-013685). HCT116 and RKO cells were reverse transfected in 6-well plates using RNAiMax (Invitrogen) and 25 nM siRNA. After 2 days, cells were harvested by trypsinization and re-plated into 6-well plates for western blot analysis or into 384-well plates for compound treatments and cell viability determination using CellTiter-Glo as described above.\n(§4) The human GFM1 cDNA (encoding mEF-G1, Table 2) was mutagenized in pENTR221 (Invitrogen) using QuikChangeII XL site-directed mutagenesis (Stratagene). The following point mutations were introduced: C1355T (encoding S452L), C1481T (encoding S494F) and T2078A (encoding L693Q). The GFM1 cDNAs were then subcloned into the mammalian expression vector pLenti4/TO/V5 using LR clonase II (Invitrogen) and sequence-verified. The pLenti4 constructs were then co-transfected with a lentiviral plasmid mix (encoding LP1, LP2 and VSV-G) into 293T cells, and viral particles were harvested after 72 h and used to infect HCT116 and RKO cells. Stable cell lines were generated by selection with 400 µg/ml Zeocin and plated into 6-well plates for western blot analysis or into 384-well plates for compound treatments and cell viability determination using CellTiter-Glo as described above."}, "[6]": {"system": "RKO", "experiment": "Cell viability (CellTiter-Glo), RKO with siRNA or mEF-G1 variants", "format": "cell-based, human", "details": "7 days", "description": "as §2, §3, §4"}, "[7]": {"system": "EF-G in complex with the ribosome", "details": "ref [22], [23], [24]; cited from earlier work", "text": "This may stand in contrast to the characterized inhibitor of EF-G, fusidic acid, which binds at the GDP/GTP binding pocket and interferes with the post translocation release of EF-G bound on the riboso ..."}, "[8]": {"system": "Cox4-GFP labeled mitochondria", "experiment": "Microscopy of mitochondrial morphology (Cox4-GFP)", "format": "cell-based, S. cerevisiae", "details": "Benomyl 3× IC30 (90 µM), 30 minutes", "description": "BY4741 cells containing a genomic COX4-GFP fusion where grown to mid-log phase in glucose and ethanol/glycerol media and incubated with the corresponding concentrations of compound for 30 minutes. Aliquots where spotted on microscopy slides and directly imaged on a Zeiss Axiovert 200Mot microscope equipped with a AxioCam MRm digital camera using the Plan-Neofluar 100×, 1.3 oil PH3 objective (Carl Zeiss, Feldbach, Switzerland). A z-stack consisting of 3 images spaced by […] in the filterset 38 (eGFP) channel and a phase-contrast image where acquired. False colors where applied to the GFP images (green) and phase contrast (blue) and the images merged into one plane and scaled to 8-bit. Representative, individual cells where selected and assembled into a panel using Adobe Photoshop (Adobe Systems Inc.)."}}, "note": "Where a SMILES comes first, the peptide text is derived from it. The star is where a group is joined. Cbz = O=C(OCc1ccccc1)*"}
{"molecule": "argyrin A", "values": [{"measurement": "Correlation of IC50 and maximal activity (Amax) profile with argyrin B (in words)", "setting": "[1]", "value": "strong correlation"}, {"measurement": "Angiogenesis (in words)", "setting": "[2]", "value": "blocks angiogenesis"}, {"measurement": "Apoptosis (in words)", "setting": "[3]", "value": "induces apoptosis"}, {"measurement": "Proteasome inhibition (in words)", "setting": "[4]", "value": "inhibits the proteasome"}]}
{"molecule": "CC(C)C[C@@H](C=O)NC(=O)[C@H](CC(C)C)NC(=O)[C@H](CC(C)C)NC(=O)OCc1ccccc1", "note": "[MG132, reference compound] (Cbz-Leu-Leu-Leu-aldehyde)", "values": [{"measurement": "Sensitivity change on knock down of mEF-G1 (in words)", "setting": "[5]; HCT116, GFM1 siRNA", "value": "without altering sensitivity"}, {"measurement": "Sensitivity change on expression of mEF-G1 L693Q (in words)", "setting": "[5]; HCT116, mEF-G1 L693Q", "value": "without altering sensitivity"}, {"measurement": "Sensitivity change on knock down of mEF-G1 (in words)", "setting": "[6]; GFM1 siRNA", "value": "without altering sensitivity"}, {"measurement": "Sensitivity change on expression of mEF-G1 L693Q (in words)", "setting": "[6]; mEF-G1 L693Q", "value": "without altering sensitivity"}]}
{"molecule": "CC(=O)O[C@H]1C[C@@]2(C)[C@@H](C[C@@H](O)[C@H]3[C@@]4(C)CC[C@@H](O)[C@@H](C)[C@@H]4CC[C@@]32C)/C1=C(\\CCC=C(C)C)C(=O)O", "note": "[fusidic acid]", "values": [{"measurement": "Binding to EF-G (in words)", "setting": "[7]", "value": "binds EF-G in complex with the ribosome"}]}
{"molecule": "CCCCNC(=O)n1c(NC(=O)OC)nc2ccccc21", "note": "[benomyl, reference compound]", "values": [{"measurement": "Effect on mitochondria (in words)", "setting": "[8]", "value": "had no effect on mitochondria"}]}
